Data on eight compounds can be found in patent US11149052B2, “2′3′-cyclic dinucleotides” (Institute of Organic Chemistry and Biochemistry, ASCR, V.V.I, priority 2018, dated 2021).

The target of assay [1] is T1, WT STING (truncated human WT STING protein) (Homo sapiens, UniProt Q86WV6, H232R).
T1 construct: truncated human WT STING or AQ STING (amino acid residues 140-343); 8xHis (N, cleaved yes); SUMO (N, cleaved yes); made in house; host or cells: E. coli Rosetta-gami B (DE3)
The assay is described as follows: Differential Scanning Fluorimetry with WT STING. It is filed as binding. As to conditions: thermal shift vs apoprotein, 150 μM CDN, 0.1 mg/ml STING protein, SYPRO Orange; for ΔTm at 150 µM: read-out: DSF ΔTm (° C.) WT STING. The method, then: (§1) Purified PCR products were cleaved with restriction enzymes BamHI (cat. #R0136S, NEB, Ipswich, USA) and NotI (cat. #R0189S, NEB, Ipswich, USA) and cloned into the pSUMO vector linearized with the identical enzymes.
(§2) DNase I (cat. #D5025, Sigma Aldrich, Czech Republic) and RNase A (cat. #R6513, Sigma Aldrich, Czech Republic) were added (final concentration […]) together with MgCl2 (final concentration 5 mmol·l^−1) to the homogenate and bacteria were lysed using French Press G-M™ High-Pressure Cell Press Homogenizer (1500 psi, 3 cycles). […] The resin was poured into a chromatography column, washed with 50 ml buffer A (50 mmol·l^−1 TrisCl (pH 8.0), 800 mmol·l^−1 NaCl, 3 mmol·l^−1β-mercaptoethanol; 10% glycerol; 20 mmol·l^−1 imidazole) and 8-His-SUMO tagged STING proteins were eluted with 15 ml buffer A containing 300 mmol·l^−1 imidazole. […] Proteins were concentrated with Amicon® Ultra-15 10 K device (cat. #UFC901008, Merck Millipore, Billerica, USA) and flash frozen in liquid N2.
(§3) Differential Scanning Fluorimetry with WT STING and AQ STING
(§4) 20 μL solutions of the reaction mixtures were pipetted in triplicates into 96 well optical reaction plates and thermal denaturation of samples were performed on real time PCR cycler (LightCycler® 480 Instrument II—Roche, Base^1, Switzerland). The first derivative of the thermal denaturation curves was performed to calculate denaturing temperatures of STING-CDN complexes and STING apoproteins. The thermal shift for each CDN was calculated by subtracting the average denaturing temperature of STING apoprotein from the average denaturing temperature of STING CDN complex.

The target of assay [2] is T2, AQ STING (truncated human STING G230A-R293Q allelic form) (Homo sapiens, UniProt Q86WV6, G230A/H232R/R293Q).
T2 construct: truncated human WT STING or AQ STING (amino acid residues 140-343); 8xHis (N, cleaved yes); SUMO (N, cleaved yes); made in house; host or cells: E. coli Rosetta-gami B (DE3)
The assay is described as follows: Differential Scanning Fluorimetry with AQ STING. In kind it is binding. As to conditions: thermal shift vs apoprotein, 150 μM CDN, 0.1 mg/ml STING protein, SYPRO Orange; for ΔTm at 150 µM: read-out: DSF ΔTm (° C.) AQ STING. Here is the method:
as §1, §2, §3, §4
A general note: DSF heats the sample and reads unfolding from a dye or from intrinsic fluorescence.

The target of assay [3] is human wild type STING (WT STING) (Homo sapiens, UniProt Q86WV6, H232R). The assay is described as follows: Digitonin assay using 293T wtSTING-FL reporter cells (ISRE firefly luciferase reporter). It is filed as cell-based. Conditions: 293T wtSTING-FL cells; 30 min in Digitonin buffer, then 5 hours; luciferase read-out; 8-point dose-response curve; read-out: Digitonin assay EC50 (μmol · l^−1) WT STING. From the text:
Two complementary oligonucleotides of the sequence […] […] […] […] […] The oligonucleotides were mixed in equal molar amounts, hybridized, and cleaved by restriction endonucleases HindIII (cat. #. R0104S, NEB, Ipswich, USA) and BglII (cat. #R0144S, NEB, Ipswich, USA). Ultimately, they were ligated into plasmid pGL4.27 (cat. #E6651, Promega, Madison, USA) linearized with the same enzymes. As result the sequence with four ISRE sites was placed upstream of the minimum promoter of firefly luciferase reporter gene.
After 5 minutes incubation at room temperature (RT), 250 μL of the mixture was added dropwise to the cells in one well.
Transfected cells were seeded onto poly-D-lysine coated six well plates at density 50,000 cells per 1 cm^2 in DMEM medium with high glucose containing 10% heat inactivated FBS, 30 μg/mL blasticidin (cat. #ant-bl-05, InvivoGen, San Diego, USA), 0.06 mg/ml Penicillin G and 0.1 mg/ml Streptomycin Sulfate (both cat. #. L0018, Biowest, Riverside, USA). The medium was replenished every 3-4 days until visible colonies of cells resistant to blasticidin were formed.
Blasticidin resistant cells stably expressing WT STING were further transfected with […] plasmid following the same procedure as described above. […] Homogeneous culture of stably double transfected cells was prepared by limiting dilution of cells in 96 well plates and wells with cells were selected that originated from a single cell.
The medium was removed next day and three fold serial dilutions of compounds in Digitonin buffer containing 50 mmol·l^−1 HEPES (cat. #H3375, Sigma Aldrich, Czech Republic) pH 7.0, 100 mmol·l^−1 KCl, 3 mmol·l^−1 MgCl2, 0.1 mmol·l^−1 DTT (cat. #D0632, Sigma Aldrich, Czech Republic), 85 mmol·l^−1 Sucrose (cat. #S7903, Sigma Aldrich, Czech Republic), 0.2% BSA (cat. #A2153, Sigma Aldrich, Czech Republic), 1 mmol·l^−1 ATP (cat. #A1852, Sigma Aldrich, Czech Republic), 0.1 mmol·l^−1 GTP (cat. #G8877, Sigma Aldrich, Czech Republic), and 10 μg/mL Digitonin A (cat. #D141, Sigma Aldrich, Czech Republic) were added to the cells. The buffer was removed after 30 minutes incubation at 37° C. with 5% CO2, the cells were washed once with 100 μl of cultivation medium, and 100 IA of medium was added to each well. The plates with cells were incubated for 5 hours at 37° C. with 5% CO2, 50 μl of the medium was removed and 30 μl of ONE-Glo™ Luciferase Assay System reagent (cat. #E6120, Promega, Madison, USA) was added to each well. Luminesce was read on Synergy H1 (Biotek, Winooski, USA).

T2 sequence (Q86WV6 140-343 G230A/H232R/R293Q): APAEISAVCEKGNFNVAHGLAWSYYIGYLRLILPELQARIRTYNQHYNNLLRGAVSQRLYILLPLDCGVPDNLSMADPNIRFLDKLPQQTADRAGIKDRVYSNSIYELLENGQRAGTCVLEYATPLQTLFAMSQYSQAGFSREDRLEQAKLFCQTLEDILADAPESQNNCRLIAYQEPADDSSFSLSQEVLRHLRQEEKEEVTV
T1 sequence (Q86WV6 140-343 H232R): as the sequence (Q86WV6 140-343 G230A/H232R/R293Q) above, with A91G, Q154R counted along it
Sequence of human wild type STING (WT STING) (Q86WV6 whole entry H232R): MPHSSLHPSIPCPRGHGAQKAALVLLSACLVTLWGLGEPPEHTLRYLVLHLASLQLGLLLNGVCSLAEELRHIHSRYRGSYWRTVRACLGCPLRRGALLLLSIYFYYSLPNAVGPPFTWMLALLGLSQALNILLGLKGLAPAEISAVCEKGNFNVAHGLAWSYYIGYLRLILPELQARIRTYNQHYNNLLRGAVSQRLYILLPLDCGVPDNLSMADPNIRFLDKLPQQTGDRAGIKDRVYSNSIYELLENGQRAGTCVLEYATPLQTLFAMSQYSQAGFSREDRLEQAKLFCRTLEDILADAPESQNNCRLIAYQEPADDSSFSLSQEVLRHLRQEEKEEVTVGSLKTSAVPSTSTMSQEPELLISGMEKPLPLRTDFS

In general, ΔTm refers to the change in melting temperature against a reference sample. Broadly, the EC50 is the concentration giving half of the maximal effect. For the compound `Nc1ncnc2c1ncn2[C@@H]1O[C@@H]2COP(=O)(O)O[C@@H]3[C@H](O)[C@@H](COP(=O)(O)CO[C@H]2[C@H]1O)O[C@H]3n1cnc2c(N)ncnc21` [Example 8, (1R,6R,8R,9R,10S,16R,18R,19R)-8,18-bis(6-amino-9H-purin-9-yl)-3,9,13,19-tetrahydroxy-2,4,7,11,14,17-hexaoxa-3λ^5,13λ^5-diphosphatricyclo[14.2.1.0^6,^10]nonadecane-3,13-dione], the ΔTm at 150 µM in assay [1] was 3 °C; in assay [2], 9.4 °C. In addition, the concentration for a half-maximal effect (EC50) in assay [3] was 400 nM.
For `Nc1nc2c(ncn2[C@@H]2O[C@@H]3COP(=O)(O)O[C@@H]4[C@H](O)[C@@H](COP(=O)(O)CO[C@H]3[C@H]2F)O[C@H]4n2cnc3c(N)ncnc32)c(=O)[nH]1` [Example 14, (1R,6R,8R,9R,10R,16R,18R,19R)-8-(2-amino-6-oxo-6,9-dihydro-1H-purin-9-yl)-18-(6-amino-9H-purin-9-yl)-9-fluoro-3,13,19-trihydroxy-2,4,7,11,14,17-hexaoxa-3λ^5,13λ^5-diphosphatricyclo[14.2.1.0^6,^10]nonadecane-3,13-dione] the same measures were 6.7 °C, 14.2 °C and 80 nM.
As for `Nc1nc2c(ncn2[C@@H]2O[C@@H]3COP(=O)(O)CO[C@H]4[C@@H](F)[C@H](n5cnc6c(N)ncnc65)O[C@@H]4COP(=O)(O)O[C@@H]2[C@@H]3O)c(=O)[nH]1` [Example 10, (1R,6R,8R,9R,10R,16R,18R,19R)-18-(2-amino-6-oxo-6,9-dihydro-1H-purin-9-yl)-8-(6-amino-9H-purin-9-yl)-9-fluoro-3,13,19-trihydroxy-2,4,7,11,14,17-hexaoxa-3λ^5,13λ^5-diphosphatricyclo[14.2.1.0^6,^10]nonadecane-3,13-dione], the figures for the ΔTm at 150 µM in assay [1] and in assay [2] were 20.9 °C and 27 °C, respectively. The EC50 in assay [3] came to 20 nM.
As to `Nc1nc2c(ncn2[C@@H]2O[C@@H]3COP(=O)(O)O[C@H]4[C@@H](O)[C@H](n5cnc6c(=O)[nH]c(N)nc65)O[C@@H]4COP(=O)(O)O[C@H]3[C@H]2O)c(=O)[nH]1` [3′3′-c-di-GMP, reference compound], the “DSF ΔTm (° C.) WT STING” value in assay [1] amounted to 2.6 °C. In assay [2], the “DSF ΔTm (° C.) AQ STING” value came out at 7.7 °C. Besides, the EC50 in assay [3] was found to be 5800 nM.
In the case of `Nc1nc2c(ncn2[C@@H]2O[C@@H]3COP(=O)(O)O[C@H]4[C@@H](F)[C@H](n5cnc6c(N)ncnc65)O[C@@H]4COP(=O)(O)CO[C@@H]2[C@@H]3O)c(=O)[nH]1` [Example 4, (1R,6R,7R,8R,10R,16R,17R,19R)-17-(2-amino-6-oxo-6,9-dihydro-1H-purin-9-yl)-8-(6-amino-9H-purin-9-yl)-7-fluoro-4,13,19-trihydroxy-3,5,9,12,15,18-hexaoxa-4λ^5,13λ^5-diphosphatricyclo[14.2.1.0^6,^10]nonadecane-4,13-dione], the values for the ΔTm at 150 µM in assay [1] and in assay [2] were 7.3 °C and 16 °C, respectively. In addition, the EC50 in assay [3] is 20 nM.
For `Nc1nc2c(ncn2[C@@H]2O[C@@H]3COP(=O)(O)O[C@@H]4[C@H](O)[C@@H](COP(=O)(O)O[C@@H]2[C@@H]3O)O[C@H]4n2cnc3c(N)ncnc32)c(=O)[nH]1` [2′2′-cGAMP, reference compound], the “DSF ΔTm (° C.) WT STING” value in assay [1] is 11.5 °C. Besides, in assay [2], the “DSF ΔTm (° C.) AQ STING” value was 19.4 °C. Besides, the EC50 in assay [3] amounted to 30 nM.
`Nc1ncnc2c1ncn2[C@@H]1O[C@@H]2COP(=O)(O)O[C@@H]3[C@H](F)[C@@H](COP(=O)(O)CO[C@H]2[C@H]1F)O[C@H]3n1cnc2c(=O)[nH]cnc21` [Example 24]: the figures for the ΔTm at 150 µM in assay [1] and in assay [2] were 20.4 °C and 25.7 °C, respectively. The EC50 in assay [3] was 20 nM.
In the case of `Nc1ncnc2c1ncn2[C@@H]1O[C@@H]2COP(=O)(O)CO[C@@H]3[C@H](O)[C@@H](COP(=O)(O)O[C@H]2[C@H]1O)O[C@H]3n1cnc2c(N)ncnc21` [Example 23, (1R,6S,7R,8R,10R,16R,17R,19R)-8,17-bis(6-amino-9H-purin-9-yl)-4,7,13,19-tetrahydroxy-3,5,9,12,15,18-hexaoxa-4λ^5,13λ^5-diphosphatricyclo[14.2.1.0^6,^10]nonadecane-4,13-dione], the ΔTm at 150 µM came to 0.2 °C in assay [1] and 3.4 °C in assay [2]. The EC50 in assay [3] worked out at 5900 nM.
